{"source": "PubChem BioAssay AID743184", "about": "(Broad Institute, 2013)", "note": "Activity calls are given as the source filed them. How the calls were made is not given here.", "data": [{"test": "M. tuberculosis BioA enzyme inhibitors, biochemical, single concentration, dry powder (AID 743184)", "conditions": "at 9.99 µM; hits give high values", "values": [{"smiles": "O=C(O)CC/C(=C\\c1ccccc1[N+](=O)[O-])c1nc2ccccc2s1", "activity score": "-1.5% (inactive)"}, {"smiles": "O=C(c1ccc2c(c1)OCO2)N1CCN(c2ccc(Cl)cc2)CC1", "activity score": "-0.291% (inactive)"}, {"smiles": "O=C(Nc1ccc(F)cc1)N1CCN(c2ccccc2)CC1", "activity score": "5.21% (inactive)"}, {"smiles": "COC(=O)c1c(C(=O)OC)c(-c2cccc(F)c2)n2c1CS(=O)C2", "note": "(centres undefined)", "activity score": "-8.08% (inactive)"}, {"smiles": "COc1ccc(C(=O)N2CCN(c3ccc(C(C)=O)cc3)CC2)cc1", "activity score": "20.7% (inactive)"}, {"smiles": "O=C(c1ccc2c(c1)OCO2)N1CCN(Cc2ccccc2)CC1", "activity score": "-10.2% (inactive)"}, {"smiles": "COc1ccc(-c2cc(C(F)(F)F)n3nc(C(=O)Nc4cccnc4)cc3n2)cc1", "activity score": "-9.52% (inactive)"}, {"smiles": "O=C(Nc1cccnc1)c1cnn2c(C(F)F)cc(C3CC3)nc12", "activity score": "-3.98% (inactive)"}, {"smiles": "CC(=O)c1ccc(N2CCN(C(=O)c3ccc(F)cc3)CC2)cc1", "activity score": "-3.75% (inactive)"}, {"smiles": "O=C(Nc1ccc2snnc2c1)N1CCCCC1", "activity score": "-5.56% (inactive)"}, {"smiles": "CC(=O)c1ccc(N2CCN(C(=O)c3ccc4ncsc4c3)CC2)cc1", "activity score": "-4.47% (inactive)"}, {"smiles": "O=C(c1ccc2c(c1)OCO2)N1CCN(c2ccccc2)CC1", "activity score": "0.078% (inactive)"}, {"smiles": "CC(=O)c1ccc(N2CCN(C(=O)c3cccnc3)CC2)cc1", "activity score": "-8.01% (inactive)"}, {"smiles": "COc1cccc(NC(=O)N2CCN(c3ccccc3)CC2)c1", "activity score": "2.06% (inactive)"}, {"smiles": "O=C(Nc1ccc(Cl)cc1)c1cc2nc(C3CC3)cc(C(F)(F)F)n2n1", "activity score": "-6.7% (inactive)"}, {"smiles": "Cc1ccc(-c2cc(C(F)(F)F)n3nc(C(=O)Nc4cccnc4)cc3n2)cc1", "activity score": "8.78% (inactive)"}, {"smiles": "Cc1ccc(/C=C(\\CCC(=O)O)c2nc3ccccc3s2)cc1[N+](=O)[O-]", "activity score": "-15.2% (inactive)"}, {"smiles": "CC(=O)c1ccc(N2CCN(C(=O)c3ccc(C)cc3)CC2)cc1", "activity score": "-7.19% (inactive)"}, {"smiles": "Cc1ccc(/C=C(\\CCC(=O)O)c2nc3ccccc3s2)cc1", "activity score": "-6% (inactive)"}, {"smiles": "Cc1ccc(/C=C(\\CC(=O)O)c2nc3ccccc3s2)cc1[N+](=O)[O-]", "activity score": "-2.58% (inactive)"}, {"smiles": "Cc1nc2ccc(NC(=O)N3CCN(c4ccccc4)CC3)cc2s1", "activity score": "-0.913% (inactive)"}, {"smiles": "CC(=O)c1ccc(N2CCN(C(=O)c3cccc(Cl)c3)CC2)cc1", "activity score": "-11.7% (inactive)"}, {"smiles": "CC(=O)c1ccc(N2CCN(C(=O)c3ccc(Cl)cc3)CC2)cc1", "activity score": "5.46% (inactive)"}, {"smiles": "O=C(c1ccc2c(c1)OCO2)N1CCN(c2ccc(F)cc2)CC1", "activity score": "-13.9% (inactive)"}, {"smiles": "O=C(Nc1ccncc1)c1cc2nc(C3CC3)cc(C(F)F)n2n1", "activity score": "-0.117% (inactive)"}, {"smiles": "COc1cccc(NC(=O)CCC2CCN(C(=O)c3ccc(C(C)=O)s3)CC2)c1", "activity score": "1.4% (inactive)"}, {"smiles": "CC(=O)c1ccc(N2CCN(C(=O)c3ccccc3)CC2)cc1", "activity score": "-3.73% (inactive)"}, {"smiles": "O=C(O)CC/C(=C\\c1ccc([N+](=O)[O-])cc1)c1nc2ccccc2s1", "activity score": "1.57% (inactive)"}, {"smiles": "COc1ccc(NC(=O)N2CCN(c3ccccc3)CC2)cc1", "activity score": "-12.2% (inactive)"}, {"smiles": "O=C(Nc1cccnc1)c1cc2nc(-c3cccs3)cc(C(F)(F)F)n2n1", "activity score": "6.22% (inactive)"}, {"smiles": "O=C(Nc1cccc(F)c1)N1CCN(c2ccccc2)CC1", "activity score": "-3.46% (inactive)"}, {"smiles": "Cc1nc2cc(NC(=O)N3CCN(c4ccccc4)CC3)ccc2o1", "activity score": "4.18% (inactive)"}, {"smiles": "O=C(Nc1ccc2[nH]ccc2c1)N1CCN(c2ccccc2)CC1", "activity score": "29.5% (inactive)"}, {"smiles": "Cc1cc(C)n2nc(C(=O)Nc3cccnc3)nc2n1", "activity score": "11.6% (inactive)"}, {"smiles": "O=C(Nc1cccc(Cl)c1)N1CCN(c2ccccc2)CC1", "activity score": "3.11% (inactive)"}, {"smiles": "CC(=O)c1ccc(N2CCN(C(=O)c3ccc(Br)cc3)CC2)c(F)c1", "activity score": "7.7% (inactive)"}, {"smiles": "O=C(Nc1cccnc1)c1cnn2c(C(F)(F)F)cc(-c3ccccc3)nc12", "activity score": "11.8% (inactive)"}, {"smiles": "O=C(Nc1cccnc1)N1CCN(c2ccccc2)CC1", "activity score": "-4.1% (inactive)"}, {"smiles": "CC(C)(C)c1ccc(C(=O)N2CCN(c3ccc4c(c3)OCO4)CC2)cc1", "activity score": "-3.13% (inactive)"}, {"smiles": "Cc1ccc(/C=C(\\CCCC(=O)O)c2nc3ccccc3s2)cc1[N+](=O)[O-]", "activity score": "1.05% (inactive)"}, {"smiles": "CCc1ccc(C(=O)N2CCN(Cc3ccc4c(c3)OCO4)CC2)cc1", "activity score": "0.311% (inactive)"}, {"smiles": "CC(=O)c1ccc(N2CCN(Cc3ccc4c(c3)OCO4)CC2)cc1", "activity score": "-2% (inactive)"}, {"smiles": "Cc1cc(C)n2nc(C(=O)Nc3cccnc3)cc2n1", "activity score": "27.1% (inactive)"}, {"smiles": "O=C(Nc1ccccc1)N1CCN(c2ccccc2)CC1", "activity score": "-4.99% (inactive)"}, {"smiles": "CCc1ccc(N2CCN(C(=O)c3ccc4c(c3)OCO4)CC2)cc1", "activity score": "-0.719% (inactive)"}, {"smiles": "O=C(Nc1ccc2snnc2c1)N1CCN(c2ccccc2)CC1", "activity score": "-7.17% (inactive)"}, {"smiles": "O=C(Nc1ccc(Cl)c(-c2nc3ccccc3[nH]2)c1)c1cccnc1", "activity score": "5.48% (inactive)"}, {"smiles": "O=C(COc1ccc2ccc(=O)oc2c1)N1CCN(c2ccc(F)cc2)CC1", "activity score": "3.38% (inactive)"}, {"smiles": "CC(=O)c1ccc(N2CCN(C(=O)c3ccc4c(c3)OCCO4)CC2)cc1", "activity score": "-1.22% (inactive)"}, {"smiles": "CC(=O)c1ccc(N2CCN(C(=O)c3cccc(F)c3)CC2)cc1", "activity score": "-6.65% (inactive)"}, {"smiles": "Cc1ccc(NC(=O)N2CCN(c3ccccc3)CC2)cc1", "activity score": "17.2% (inactive)"}, {"smiles": "Cc1cccc(/C=C(\\CCC(=O)O)c2nc3ccccc3s2)c1", "activity score": "1.92% (inactive)"}, {"smiles": "COc1ccc(N2CCN(C(=O)c3ccc4c(c3)OCO4)CC2)cc1", "activity score": "-1.28% (inactive)"}, {"smiles": "Cc1ccccc1/C=C(\\CCC(=O)O)c1nc2ccccc2s1", "activity score": "-6.51% (inactive)"}]}]}
